Measured values as given in patent US20220144838A1, “Compounds as Inhibitors of Macrophage Migration Inhibitory Factor” (NANJING IMMUNOPHAGE BIOTECH CO., LTD., priority 2019, published 2022).
Like-named read-outs stand apart in the source and are kept apart here.

What was measured:
MIF = biological target: T1, MIF (Homo sapiens, UniProt P14174); assay: MIF tautomerase assay using pHPP as substrate; assay type: biochemical; conditions: mean of multiple test results
T1 sequence (P14174 2-115 limits assumed): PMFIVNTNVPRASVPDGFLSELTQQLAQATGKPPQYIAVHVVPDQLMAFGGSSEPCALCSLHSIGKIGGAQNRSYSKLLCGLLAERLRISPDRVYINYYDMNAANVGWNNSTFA
Summary of the method: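 Mean pIC50 derived from initial rates (absorbance progress-curve slopes) of MIF-catalyzed ketonic-to-enolic pHPP conversion, read as enol–borate complex. Reactions contained 1.5 mM substrate and 3 nM enzyme (final), 200 mM boric acid stock buffer, BSA and CHAPS, pH 6.0.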

BV2 cells = assay: BV2 cell proliferation assay (CCK-8); assay type: cell-based; conditions: Mus musculus, BV-2, 48 h treatment, FIGS. 6-8, read-out: pIC50 BV2 cell proliferation (converted)
Text: The assay measures the ability of a compound to inhibit cell proliferation using Cell Counting Kit-8 (CCK-8), which allows sensitive colorimetric assays for the determination of cell viability in cell proliferation and cytotoxicity assays. The highly water-soluble tetrazolium salt, WST-8, is reduced by dehydrogenase activities in cells to give a yellow-color formazan dye, which is soluble in the tissue culture media. The amount of the formazan dye, generated by the activities of dehydrogenases in cells, is directly proportional to the number of living cells.
The assay was performed based on the instruction of the manufacture (Dojindo Molecular Technologies Inc., Rockville, Md., USA). To start the assay, BV2 cells were seeded at a density of […] into 96-well plates and treated with test compounds, which were used at a top final assay concentration of 33.3 μM, diluted in assay medium with 1:3 dilutions to produce 10 point concentration responses, for 48 h. After incubation, the CCK-8 solution (10 μl) was added to each well of the plate and the plates were incubated in incubator at 37° C. for 3 h. Absorbance was recorded three times independently using a microplate reader (Bio-Rad Laboratories, Richmond, Calif., USA) at 450 nm.
(§1) Selected examples were tested in the BV2 cell proliferation assay. The data mentioned below represents a mean pIC50 value of multiple test results. It is understood that the data illustrated below may have reasonable variation depending on the specific conditions and procedures used by the person conducting the testing.

4T1 cells = assay: 4T1 breast cancer syngeneic mouse model; assay type: in vivo, Balb/c mice; conditions: 4T1 model; IMG-321 20 mg/kg b.i.d. combined with gemcitabine 3 mg/kg once every 10 days
Experimental: Female Balb/c mice (5-6 weeks old) were purchased from Charles River Laboratories (Hollister, Calif.). Animals were housed and treated in accordance with Institutional Animal Care and Use Committee guidelines. For the generation of 4T1 breast cancer model, 1×10^5 4T1 cells were injected orthotopically into the mammary fat pad. For the generation of lung cancer model, 1×10^5 LLC cells were injected subcutaneously. For the generation of murine melanoma model, 1×10^5 B16-F10 cells were injected subcutaneously. Test compounds were administered by I.P. injection in a dose range of 10-100 mg/kg starting on study day 1 (7 days after tumor implantation). Control groups received vehicle (water) twice daily by I.P. injection. Tumor volume measured by digital caliper (length×width×width/2) and body weight were recorded three times per week. Animals were euthanized when tumors necrotized or volumes reached 2000 mm3.
One-way Anova, student's T test, and Mann-Whitney test performed by GraphPad5 PRISM software (GraphPad Software, Inco, San Diego, Calif., USA) were used according to different experimental conditions. P value<0.05 was considered statistically significant. Significance is indicated in the figures by asterisks *p<0.05, **p<0.01.
Female Balb/C mice (8 weeks old) were injected with 1×10^5 4T1 cells into the mammary fat pad. […] Tumor volume was measured by digital caliper (length×width×width/2). […]

[1] = biological target: T2, biotinylated human MIF / MIF receptor ectodomain (sCD74) (Homo sapiens, UniProt P14174); assay: MIF-CD74 binding assay; conditions: FIGS. 9-12; read-out: pIC50 MIF-CD74 binding (converted)
T2 construct: made in house
T2 sequence (P14174 2-115 limits assumed): T1 sequence (P14174 2-115 limits assumed)
Experimental: The assay measures the ability of a compound to inhibit the binding of MIF with its receptor CD74 in vitro. 96-well plates were coated with recombinant MIF receptor ectodomain (sCD74=CD7473-232), washed 4 times, and blocked with Superblock (Pierce Biotechnology) at 4° C. overnight. Test compounds, which were used at a top final assay concentration of 33.3 μM, diluted in assay medium with 1:3 dilutions to produce 10 point concentration responses, were pre-incubated with biotinylated human MIF (2 ng/μl) (Roche Applied Sciences) prepared recombinantly for 30 minutes at room temperature. The mixtures then were added to wells for overnight incubation at 4° C. The wells were washed 4 times and strepavidin-conjugated alkaline phosphatase (R&D Systems) was added for one hour incubation at room temperature. After additional washes, 60 μl/well of p-nitrophenyl phosphate (Sigma) substrate was added. Absorbance at 405 nm was plotted as percent A405 relative to wells containing biotinylated human MIF alone. Each plot represented at least three independently performed assays, and each data point depicts a SEM≤10%. Each test compound was analyzed over 10-12 concentrations, and over a ˜500-fold concentration range.
as §1, with “MIF-CD74 binding” for “BV2 cell proliferation”

[2] = inhibition of the MIF enzyme in vitro, read-out: Tautomerase Inhibition pIC50 (converted)

Row | IC50 (MIF; [2]) | SMILES | also measured
1 | 1 to 9.77 µM | Nc1nc(N2CCN(c3ccc(O)cc3)CC2)nc2c1ncn2-c1cncnc1 [Example 81, 4-(4-(6-amino-9-(pyrimidin-5-yl)-9H-purin-2-yl)piperazin-1-yl)phenol] | IC50 (BV2 cells): 23.1 µM
2 | – | Nc1ccn([C@@H]2O[C@H](CO)[C@@H](O)C2(F)F)c(=O)n1 [Gemcitabine, gemcitabine] | breast cancer growth (tumor volume), combination (4T1 cells): Synergistically Inhibited Breast Cancer Growth
3 | 0.01 to 0.0977 µM | COc1ncccc1-n1cnc2c(C)nc(N3CCN(c4ccc(O)cc4)CC3)nc21 [Example 62, 4-(4-(9-(2-methoxypyridin-3-yl)-6-methyl-9H-purin-2-yl)piperazin-1-yl)phenol] | IC50 [1]: 26.3 µM
4 | 0.01 to 0.0977 µM | O=C(O)CCn1cnc2c(-n3ncc4ccccc43)nc(N3CCN(c4ccc(O)cc4)CC3)nc21 [Example 148, 4-(2-(4-(4-hydroxyphenyl)piperazin-1-yl)-6-(1H-indazol-1-yl)-9H-purin-9-yl)propanoic acid] | IC50 [1]: 4.9 µM
5 | 0.1 to 0.977 µM | Nc1nc(N2CCN(c3ccc(O)cc3)CC2)nc2c1ncn2-c1cccnc1 [Example 115, 4-(4-(6-amino-9-(pyridin-3-yl)-9H-purin-2-yl)piperazin-1-yl)phenol] | IC50 [1]: 2.61 µM
6 | 1 to 9.77 µM | Oc1ccc(N2CCN(c3nc(NCC4CC4)c4ncn(-c5cccnc5)c4n3)CC2)cc1 [Example 95, 4-(4-(6-((cyclopropylmethyl)amino)-9-(pyridin-3-yl)-9H-purin-2-yl)piperazin-1-yl)phenol] | IC50 (BV2 cells): 6.92 µM
7 | 0.01 to 0.0977 µM | COc1ccc2c(cnn2-c2nc(N3CCN(c4ccc(O)cc4)CC3)nc3c2ncn3CC(=O)O)c1 [Example 51, 2-(2-(4-(4-hydroxyphenyl)piperazin-1-yl)-6-(5-methoxy-1H-indazol-1-yl)-9H-purin-9-yl)acetic acid] | IC50 [1]: 8.91 µM; IC50 (MIF; FIGS. 1-5, read-out: pIC50 MIF tautomerase activity (converted)): ≤ 0.1 µM
8 | 0.01 to 0.0977 µM | Nc1nc(N2CCN(c3ccc(O)cc3)CC2)nc2c1ncn2-c1ccncc1 [Example 80, 4-(4-(6-amino-9-(pyridin-4-yl)-9H-purin-2-yl)piperazin-1-yl)phenol] | IC50 (BV2 cells): 5.02 µM
9 | 1 to 9.77 µM | CNC(=O)c1ccc(-n2cnc3c(N)nc(N4CCN(c5ccc(O)cc5)CC4)nc32)cc1 [Example 103, 4-(6-amino-2-(4-(4-hydroxyphenyl)piperazin-1-yl)-9H-purin-9-yl)-N-methylbenzamide] | –
10 | 0.1 to 0.977 µM | O=C(O)Cn1cnc2c(-n3ncc4ccccc43)nc(N3CCC(O)(c4ccc(F)cc4)CC3)nc21 [Example 223, 2-(2-(4-(4-fluorophenyl)-4-hydroxypiperidin-1-yl)-6-(1H-indazol-1-yl)-9H-purin-9-yl)acetic acid] | –
11 | > 10 µM | O=C(O)Cn1cnc2c(-n3c(CO)nc4ccccc43)nc(N3CCN(c4ccc(O)cc4)CC3)nc21 [Example 29, 2-(6-(2-(hydroxymethyl)-1H-benzo[d]imidazol-1-yl)-2-(4-(4-hydroxyphenyl)piperazin-1-yl)-9H-purin-9-yl)acetic acid] | –
12 | 0.01 to 0.0977 µM | O=C(O)Cn1cnc2c(-n3cnc4ccccc43)nc(N3CCN(c4ccc(O)cc4)CC3)nc21 [Example 41, 2-(6-(1H-benzo[d]imidazol-1-yl)-2-(4-(4-hydroxyphenyl)piperazin-1-yl)-9H-purin-9-yl)acetic acid] | –
13 | 0.1 to 0.977 µM | O=C(O)Cn1cnc2c(N3Cc4ccccc4C3=O)nc(N3CCN(c4ccc(O)cc4)CC3)nc21 [Example 119, 2-(2-(4-(4-hydroxyphenyl)piperazin-1-yl)-6-(1-oxoisoindolin-2-yl)-9H-purin-9-yl)acetic acid] | –
14 | 0.1 to 0.977 µM | Cc1nc(N2CCN(c3ccc(O)cc3)CC2)nc2c1ncn2-c1ccccc1 [Example 43, 4-(4-(6-methyl-9-phenyl-9H-purin-2-yl)piperazin-1-yl)phenol] | –
